Experimental data from patent publication US5804410A, “Nucleic acid sequence encoding trypsin-like enzyme and process for producing the enzyme” (Teijin Limited, priority 1994, dated 1998).

What was measured:
trypsin-like enzyme = target: T1, trypsin-like enzyme (Homo sapiens, UniProt O60235); experiment: Substrate specificity, synthetic MCA substrates (assay method of trypsin activity); format: biochemical; settings: synthetic substrates, pH 8.6
T1 construct: from tissue; host or cells: cough phlegm (sputum) of patients with chronic disease of the respiratory tract

[1] = Measurement of optimum pH of trypsin-like enzyme; format: biochemical; settings: at pH 6.0, relative to the enzyme at pH 7.6
Method: 50 μl of the solution of the trypsin-like protease obtained in Example 1 was added to 1.5 ml of 0.1M Tris-HCl buffer (pH 8.6) containing 100 μM of a synthetic substrate for trypsin Boc-Phe-Ser-Arg-MCA (MCA=methylcoumarinamide), and the mixture was subjected to incubation at 37° C. for 1 hour. 1 ml of 30% acetic acid was then added, the amount of 7-amino-4-methylcoumarin (AMC) formed was determined by fluorescent assay (fluorescence 440 nm, excitating light 380 nm), and the activity of the enzyme was calculated based thereon. An activity of forming 1 pM of AMC in 1 minute is defined as 1 unit (1 unit=1 pM AMC/min).
The following buffers were prepared for ascertaining trypsin activity at various pH values.
The activity of the trypsin-like enzyme obtained in Example 1 in each buffer was assayed according to the method described in Example 2, and the results are shown in FIG. 2.

fibrinogen = experiment: Influence of trypsin-like enzyme on thrombin-induced coagulation time of fibrinogen; format: biochemical; settings: fibrinogen 2 mg/ml, 37° C., thrombin 2.5 units/ml; in proportion as the added activity unit increases; FIG. 3
Method: Fibrinogen was dissolved in 0.01M Tris-HCl buffer (pH 7.4), 0.01M CaCl2 0.15M NaCl so that its concentration could be 2 mg/ml, the trypsin-like enzyme obtained in Example 1 was added with its activity unit changed, the mixture was heated to 37° C., 0.1 ml of this reaction solution was mixed with 0.1 ml of a thrombin solution (2.5 units/ml), and coagulation time was measured on the mixture. In proportion as the added activity unit of the trypsin-like enzyme increases, coagulation time was prolonged.

influenza viruses = settings: in contrast to trypsin; cited from earlier work
NDV Miyadera strain = settings: cited from earlier work
VSV New Jersey strain = settings: cited from earlier work

T1 sequence (O60235 187-418): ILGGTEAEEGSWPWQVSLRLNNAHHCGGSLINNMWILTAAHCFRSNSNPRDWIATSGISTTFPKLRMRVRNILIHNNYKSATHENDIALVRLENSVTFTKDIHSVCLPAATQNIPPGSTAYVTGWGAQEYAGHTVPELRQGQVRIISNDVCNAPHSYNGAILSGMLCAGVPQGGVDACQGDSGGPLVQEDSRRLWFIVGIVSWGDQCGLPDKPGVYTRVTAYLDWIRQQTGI

In the case of “trypsin-like enzyme: protease isolated from cough phlegm of patients with chronic respiratory tract disease, amino acid sequence [I] (SEQ ID NO:19)”, the “chymotrypsin activity, elastase activity, collagenase activity, leucine aminopeptidase activity of the enzyme” value (trypsin-like enzyme) is reported as “did not exhibit”, the “Inactivation by pH” value [1] is reported as “about 80%” and the coagulation time (fibrinogen) is reported as “prolonged”. The “action of inactivating influenza viruses” value (influenza viruses) was “inactivating”, the “action of inactivating NDV Miyadera strain” value (NDV Miyadera strain) was “inactivating” and the “action of inactivating VSV New Jersey strain” value (VSV New Jersey strain) was “inactivating”.
